The nature of the data set: physchem.

These results are taken from patent US20110183978A1, “Phenylpyri(mi)dinylazoles” (Bayer CropScience AG, priority 2009, published 2011).

Each structure is given as a SMILES string.

Take `CSCCn1cc(Br)c(-c2ccc(F)cc2)n1` [[VI-15], 4-Bromo-3-(4-fluorophenyl)-1-[2-(methylsulphanyl)ethyl]-1H-pyrazole]: the chromatographic logP – broadly, a lipophilicity value derived from retention on a column – by setting is: (pH 2.3, LogP (pH 2.3)) 3.63; (pH 2.7, logP (pH 2.7)) 3.63.

Turning to `COC(=O)C(C(C)C)n1cc(Br)c(-c2ccc(F)cc2)n1` (centres unmarked) [[VI-16], Methyl 2-[4-bromo-3-(4-fluorophenyl)-1H-pyrazol-1-yl]-3-methylbutanoate], the chromatographic logP by setting is: (pH 2.3, LogP (pH 2.3)) 4.27; (pH 2.7, logP (pH 2.7)) 4.27.

For `Fc1ccc(-c2nn(CC3OCCO3)cc2Br)cc1` [[VI-17], 4-Bromo-1-(1,3-dioxolan-2-ylmethyl)-3-(4-fluorophenyl)-1H-pyrazole], the chromatographic logP by setting is: (pH 2.3, LogP (pH 2.3)) 3.01; (pH 2.7, logP (pH 2.7)) 3.01.

On to `Fc1ccc(-c2nn(CC3CC3)cc2Br)cc1` [[VI-18], 4-Bromo-1-(cyclopropylmethyl)-3-(4-fluorophenyl)-1H-pyrazole], for which the chromatographic logP was determined as 3.9 (pH 2.3, LogP (pH 2.3)) and 3.9 (pH 2.7, logP (pH 2.7)).

Consider `CCC(C)n1cc(Br)c(-c2ccc(F)cc2)n1` (centres unmarked) [[VI-19], 4-Bromo-1-sec-butyl-3-(4-fluorophenyl)-1H-pyrazole], for which the chromatographic logP worked out at 4.39 (pH 2.3, LogP (pH 2.3)) and 4.39 (pH 2.7, logP (pH 2.7)).

Turning to `CCOCCn1cc(Br)c(-c2ccc(F)cc2)n1` [[VI-20], 4-Bromo-1-(2-ethoxyethyl)-3-(4-fluorophenyl)-1H-pyrazole], the chromatographic logP stood at 3.51 (pH 2.3, LogP (pH 2.3)) and 3.51 (pH 2.7, logP (pH 2.7)).

On to `CC(CC#N)n1cc(Br)c(-c2ccc(F)cc2)n1` (centres unmarked) [[VI-21], 3-[4-Bromo-3-(4-fluorophenyl)-1H-pyrazol-1-yl]butanonitrile], for which the chromatographic logP runs as follows: (pH 2.3, LogP (pH 2.3)) 3.08; (pH 2.7, logP (pH 2.7)) 3.08.

Take `CC(C1CC1)n1cc(Br)c(-c2ccc(F)cc2)n1` (centres unmarked) [[VI-22], 4-Bromo-1-(1-cyclopropylethyl)-3-(4-fluorophenyl)-1H-pyrazole]: the chromatographic logP by setting is: (pH 2.3, LogP (pH 2.3)) 4.43; (pH 2.7, logP (pH 2.7)) 4.43.

As for `N#CCCn1cc(Br)c(-c2ccc(F)cc2)n1` [[VI-23], 3-[4-bromo-3-(4-fluorophenyl)-1H-pyrazol-1-yl]propanonitrile], the chromatographic logP was determined as 2.69 (pH 2.3, LogP (pH 2.3)) and 2.69 (pH 2.7, logP (pH 2.7)).

With `CC(C)n1nc(-c2ccc(F)cc2)c(Br)c1C(F)(F)F` [[VI-24], 4-Bromo-3-(4-fluorophenyl)-1-isopropyl-5-(trifluoromethyl)-1H-pyrazole], the chromatographic logP is 5.51 (pH 2.3, LogP (pH 2.3)) and 5.51 (pH 2.7, logP (pH 2.7)).

Take `CC(C)On1cc(Br)c(-c2ccc(F)cc2)n1` [[VI-25], 4-Bromo-3-(4-fluorophenyl)-1-isopropoxy-1H-pyrazole]: the chromatographic logP (pH 2.3, LogP (pH 2.3)) was found to be 4.11 and the chromatographic logP (pH 2.7, logP (pH 2.7)) came to 4.11.

Regarding `Fc1ccc(-c2nn(C3CC3)cc2Br)cc1` [[VI-26], 4-Bromo-1-cyclopropyl-3-(4-fluorophenyl)-1H-pyrazole], the chromatographic logP was 3.59 (pH 2.3, LogP (pH 2.3)) and 3.59 (pH 2.7, logP (pH 2.7)).

For the compound `CC(C)(C)OC(=O)N1CCC(n2cc(Br)c(-c3ccc(F)cc3)n2)CC1` [[VI-27], Tert-butyl 4-[4-bromo-3-(4-fluorophenyl)-1H-pyrazol-1-yl]piperidin-1-carboxylate], the chromatographic logP reads like this: (pH 2.3, LogP (pH 2.3)) 4.77; (pH 2.7, logP (pH 2.7)) 4.77.

In the case of `Cn1nc(-c2ccc(F)cc2)c(Br)c1OC(F)F` [[VI-b-1], 4-Bromo-5-(difluoromethoxy)-3-(4-fluorophenyl)-1-methyl-1H-pyrazole], the chromatographic logP by setting is: (pH 2.3, LogP (pH 2.3)) 3.52; (pH 2.7, logP (pH 2.7)) 3.52.

In the case of `CC(C)n1nc(-c2ccc(F)cc2)c(Br)c1OC(F)F` [[VI-b-2], 4-Bromo-5-(difluoromethoxy)-3-(4-fluorophenyl)-1-isopropyl-1H-pyrazole], the chromatographic logP (pH 2.3, LogP (pH 2.3)) was found to be 4.61 and the chromatographic logP (pH 2.7, logP (pH 2.7)) was 4.61.

Consider `CC(C)Cn1nc(-c2ccc(F)cc2)c(Br)c1OC(F)F` [[VI-b-3], 4-Bromo-5-(difluoromethoxy)-3-(4-fluorophenyl)-1-isobutyl-1H-pyrazole], for which the chromatographic logP was found to be 4.91 (pH 2.3, LogP (pH 2.3)) and 4.91 (pH 2.7, logP (pH 2.7)).

`COc1cc(F)ccc1-c1nn(C)c(OC(F)F)c1Br` [[VI-b-4], 4-Bromo-5-(difluoromethoxy)-3-(4-fluoro-2-methoxyphenyl)-1-methyl-1H-pyrazole]: under “pH 2.7, logP (pH 2.7)”, the chromatographic logP amounted to 3.15.

As for `Cn1nc(-c2ccc(F)cc2O)c(Br)c1OC(F)F` [[VI-c-1], 2-[4-Bromo-5-(difluoromethoxy)-1-methyl-1H-pyrazol-3-yl]-5-fluorophenol], the chromatographic logP stood at 3.48 (pH 2.3, LogP (pH 2.3)) and 3.48 (pH 2.7, logP (pH 2.7)).

Turning to `Fc1ccc(-c2n[nH]cc2Br)cc1` [[VII-I], 4-Bromo-3-(4-fluorophenyl)-1H-pyrazole], for the setting “pH 2.7, logP (pH 2.7)”, the chromatographic logP came to 2.29.

Regarding `Fc1ccc(-c2c(-c3ccncc3)cnn2C2CCCCO2)cc1` (centres unmarked) [[X-1], 4-[5-(4-Fluorophenyl)-1-(tetrahydro-2H-pyran-2-yl)-1H-pyrazol-4-yl]pyridine], the chromatographic logP is, setting by setting: (pH 2.3, LogP (pH 2.3)) 1.23; (pH 2.7, logP (pH 2.7)) 1.23.

The compound `COc1ccc(-c2c(-c3ccncc3)cnn2C2CCCCO2)c2ccccc12` (centres unmarked) [[X-2], 4-[5-(4-methoxy-1-naphthyl)-1-(tetrahydro-2H-pyran-2-yl)-1H-pyrazol-4-yl]pyridine] had a chromatographic logP (pH 2.3, LogP (pH 2.3)) of 1.61.

For the compound `Fc1ccc(-c2c(-c3ccncc3)cnn2C2CCCCO2)c2ccccc12` (centres unmarked) [[X-3], 4-[5-(4-fluoro-1-naphthyl)-1-(tetrahydro-2H-pyran-2-yl)-1H-pyrazol-4-yl]pyridine], for the setting “pH 2.3, LogP (pH 2.3)”, the chromatographic logP was found to be 1.72.

For the compound `FC1(F)Oc2cccc(-c3c(-c4ccncc4)cnn3C3CCCCO3)c2O1` (centres unmarked) [[X-4], 4-[5-(2,2-difluoro-1,3-benzodioxol-4-yl)-1-(tetrahydro-2H-pyran-2-yl)-1H-pyrazol-4-yl]pyridine], for the setting “pH 2.3, LogP (pH 2.3)”, the chromatographic logP came out at 1.64.

Consider `Fc1ccc(-c2c(-c3ccncc3)cnn2C2CCCCO2)cc1Cl` (centres unmarked) [[X-6], 4-[5-(3-chloro-4-fluorophenyl)-1-(tetrahydro-2H-pyran-2-yl)-1H-pyrazol-4-yl]pyridine], for which, for the setting “pH 2.3, LogP (pH 2.3)”, the chromatographic logP amounted to 1.57.

Take `Fc1ccc(-c2c(-c3ccncc3)cnn2C2CCCCO2)c(F)c1` (centres unmarked) [[X-8], 4-[5-(2,4-difluorophenyl)-1-(tetrahydro-2H-pyran-2-yl)-1H-pyrazol-4-yl]pyridine]: the chromatographic logP (pH 2.3, LogP (pH 2.3)) is 1.35.

`CC(C)(C)c1ccc(-c2c(-c3ccncc3)cnn2C2CCCCO2)cc1` (centres unmarked) [[X-9], 4-[5-(4-tert-butylphenyl)-1-(tetrahydro-2H-pyran-2-yl)-1H-pyrazol-4-yl]pyridine] showed a chromatographic logP (pH 2.3, LogP (pH 2.3)) of 2.02.

For `c1ccc(Oc2ccc(-c3c(-c4ccncc4)cnn3C3CCCCO3)cc2)cc1` (centres unmarked) [[X-10], 4-[5-(4-phenoxyphenyl)-1-(tetrahydro-2H-pyran-2-yl)-1H-pyrazol-4-yl]pyridine], the chromatographic logP (pH 2.3, LogP (pH 2.3)) was found to be 1.88.

Turning to `N#Cc1cccc(-c2c(-c3ccncc3)cnn2C2CCCCO2)c1` (centres unmarked) [[X-11], 3-[4-(pyridin-4-yl)-1-(tetrahydro-2H-pyran-2-yl)-1H-pyrazol-5-yl]benzonitrile], the chromatographic logP (pH 2.3, LogP (pH 2.3)) was found to be 1.23.

Under “pH 2.3, LogP (pH 2.3)”, `N#Cc1cc(-c2c(-c3ccncc3)cnn2C2CCCCO2)ccc1F` (centres unmarked) [[X-12], 2-fluoro-5-[4-(pyridin-4-yl)-1-(tetrahydro-2H-pyran-2-yl)-1H-pyrazol-5-yl]benzonitrile] returned a chromatographic logP of 1.45.

Compound `COc1cc(F)ccc1-c1c(-c2ccncc2)cnn1C1CCCCO1` (centres unmarked) [[X-14], 4-[5-(4-fluoro-2-methoxyphenyl)-1-(tetrahydro-2H-pyran-2-yl)-1H-pyrazol-4-yl]pyridine] came in with a chromatographic logP (pH 2.3, LogP (pH 2.3)) of 1.26.

Compound `c1cc(-c2cnn(C3CCCCO3)c2-c2ccc(N3CCOCC3)cc2)ccn1` (centres unmarked) [[X-15], 4-{4-[4-(pyridin-4-yl)-1-(tetrahydro-2H-pyran-2-yl)-1H-pyrazol-5-yl]phenyl}morpholine] gave a chromatographic logP (pH 2.3, LogP (pH 2.3)) of 1.26.

Consider `c1ccc(Oc2cccc(-c3c(-c4ccncc4)cnn3C3CCCCO3)c2)cc1` (centres unmarked) [[X-16], 4-[5-(3-phenoxyphenyl)-1-(tetrahydro-2H-pyran-2-yl)-1H-pyrazol-4-yl]pyridine], for which the chromatographic logP (pH 2.3, LogP (pH 2.3)) came out at 1.88.

In the case of `CS(=O)(=O)c1ccc(-c2c(-c3ccncc3)cnn2C2CCCCO2)cc1` (centres unmarked) [[X-17], 4-{5-[4-(methylsulphonyl)phenyl]-1-(tetrahydro-2H-pyran-2-yl)-1H-pyrazol-4-yl}pyridine], the chromatographic logP (pH 2.3, LogP (pH 2.3)) is 0.96.

For `Clc1ccc(-c2c(-c3ccncc3)cnn2C2CCCCO2)cc1` (centres unmarked) [[X-18], 4-[5-(4-chlorophenyl)-1-(tetrahydro-2H-pyran-2-yl)-1H-pyrazol-4-yl]pyridine], the chromatographic logP (pH 2.3, LogP (pH 2.3)) worked out at 1.52.

`FC(F)(F)Oc1ccc(-c2c(-c3ccncc3)cnn2C2CCCCO2)cc1` (centres unmarked) [[X-19], 4-{1-(tetrahydro-2H-pyran-2-yl)-5-[4-(trifluoromethoxy)phenyl]-1H-pyrazol-4-yl}pyridine] returned a chromatographic logP (pH 2.3, LogP (pH 2.3)) of 1.78.

Turning to `Clc1cccc(-c2c(-c3ccncc3)cnn2C2CCCCO2)c1Cl` (centres unmarked) [[X-20], 4-[5-(2,3-dichlorophenyl)-1-(tetrahydro-2H-pyran-2-yl)-1H-pyrazol-4-yl]pyridine], the chromatographic logP (pH 2.3, LogP (pH 2.3)) is 1.66.

Under “pH 2.3, LogP (pH 2.3)”, `CN(C)c1cccc(-c2c(-c3ccncc3)cnn2C2CCCCO2)c1` (centres unmarked) [[X-21], N,N-dimethyl-3-[4-(pyridin-4-yl)-1-(tetrahydro-2H-pyran-2-yl)-1H-pyrazol-5-yl]aniline] had a chromatographic logP of 1.33.

`c1ccc(COc2ccccc2-c2c(-c3ccncc3)cnn2C2CCCCO2)cc1` (centres unmarked) [[X-22], 4-{5-[2-(benzyloxy)phenyl]-1-(tetrahydro-2H-pyran-2-yl)-1H-pyrazol-4-yl}pyridine]: under “pH 2.3, LogP (pH 2.3)”, the chromatographic logP came to 1.64.

In the case of `NS(=O)(=O)c1ccc(-c2c(-c3ccncc3)cnn2C2CCCCO2)cc1` (centres unmarked) [[X-23], 4-[4-(pyridin-4-yl)-1-(tetrahydro-2H-pyran-2-yl)-1H-pyrazol-5-yl]benzenesulphonamide], the chromatographic logP (pH 2.3, LogP (pH 2.3)) came out at 0.92.

Compound `c1cnc2c(-c3c(-c4ccncc4)cnn3C3CCCCO3)cccc2c1` (centres unmarked) [[X-24], 8-[4-(pyridin-4-yl)-1-(tetrahydro-2H-pyran-2-yl)-1H-pyrazol-5-yl]quinoline] gave a chromatographic logP (pH 2.3, LogP (pH 2.3)) of 1.09. This chromatographic logP and that of the compound before are within 0.2 log units of each other.

With `CSc1nccc(-c2cn(C(C)C)nc2-c2ccc(F)cc2)n1` [[XL-1], 4-[3-(4-Fluorophenyl)-1-isopropyl-1H-pyrazol-4-yl]-2-(methylsulphanyl)pyrimidine], where the note is “pH 2.7, logP (pH 2.7)”, the chromatographic logP turned out to be 3.62.
